Assay results taken from US8022072B2, “Azolylmethylidenehydrazine derivative and use thereof” (Kaken Pharmaceutical Co., Ltd., priority 2007, dated 2011).
Values after ≈ are worked out from the molar mass of the structure shown.

Key:
Assay type in all cases: cell-based
[1] = tested on: Trichophyton mentagrophytes KD-04; assay: Antifungal activity evaluation test, MIC, Trichophyton mentagrophytes KD-04; conditions: KD04, 168 h, Sabouraud Dextrose Broth, 30° C., 7 days, visual, read-out: MIC T. men. KD-04
Experimental: (§1) The minimum inhibitory concentration (MIC) for Trichophyton mentagrophytes, Trichophyton rubrum, and Malassezia furfur was measured according to the following procedure. • Test compound solution: A test compound was dissolved in dimethyl sulfoxide (DMSO) at a concentration of 5 mg/mL as a stock solution. […] Then, as a test medium, a fungal solution of Trichophyton species was 100-fold diluted with Sabouraud Dextrose Broth (Difco), and a fungal solution of Malassezia furfur IFO-0656 was 100-fold diluted with MU medium to give each inoculum (2×10^4 cells/mL). • Measurement of MIC of Trichophyton fungi: Sabouraud Dextrose Broth (Difco) was dispensed by 100 μL to a given well of a 96 well flat microplate. Then, a test compound solution (2 μL) was added, and the mixture was thoroughly mixed with a plate mixer. A fungal solution (100 μL) was inoculated and cultured at 30° C. for 7 days. The presence or absence of the cell growth was visually observed, and the minimum medicament concentration at which the cell growth was prevented was taken as MIC (μg/mL). • Measurement of MIC of Malassezia furfur: Since the urease activity of this fungus and the fungus growth rate are co-related, MIC was evaluated by the following method using urease activity as an index. MU medium was dispensed by 100 μL to a given well of a 96 well flat microplate. Then, a test compound solution (2 μL) was added, and the mixture was thoroughly mixed with a plate mixer. A fungal solution (100 μL) was inoculated and cultured at 30° C. The culture was stopped on day 4 or 5 of culture when the color tone of the MU medium changes from yellow to red in visual observation of the fungus growth in a well free of addition of a test substance. Then the plate was stirred until the fungus became uniform, and the urease activity was measured based on the measurement of absorbance at 550 nm using a plate reader.

[2] = tested on: Trichophyton mentagrophytes SM-110; assay: Antifungal activity evaluation test, MIC, Trichophyton mentagrophytes SM-110; conditions: SM110, 168 h, Sabouraud Dextrose Broth, 30° C., 7 days, visual, read-out: MIC T. men. SM-110
Experimental: as §1

[3] = tested on: Trichophyton rubrum KD-101; assay: Antifungal activity evaluation test, MIC, Trichophyton rubrum KD-101; conditions: KD101, 168 h, Sabouraud Dextrose Broth, 30° C., 7 days, visual, read-out: MIC T. rub. KD-101
Experimental: as §1

[4] = tested on: Trichophyton rubrum KD-107; assay: Antifungal activity evaluation test, MIC, Trichophyton rubrum KD-107; conditions: KD107, 168 h, Sabouraud Dextrose Broth, 30° C., 7 days, visual, read-out: MIC T. rub. KD-107
Experimental: as §1

[5] = tested on: Malassezia furfur IFO-0656; assay: Antifungal activity evaluation test, MIC by urease activity, Malassezia furfur IFO-0656; conditions: IFO0656, 96 h, MU medium, 30° C., day 4 or 5, urease activity of 20% or below, read-out: MIC M. fur. IFO-0656
Experimental: as §1

[6] = tested on: Trichophyton mentagrophytes KD-04; assay: Influence of keratin addition on anti-Trichophyton activity; conditions: for MIC: Trichophyton mentagrophytes, KD04, 168 h, 30° C., 7 days; for MIC increase by the addition of keratin to medium: Trichophyton, text summary of Table 4
Experimental: The MIC increase rate by the addition of keratin to a medium was measured by the following procedure. • Test compound solution: A test compound was dissolved in dimethyl sulfoxide (DMSO) at a concentration of 5 mg/mL as a stock solution. Diluting this solution with DMSO, a 2-fold dilution series was prepared. • Test strain: Trichophyton mentagrophytes KD-04 was used. Preparation of Fungal Inoculum: the Above-Mentioned Strain was suspended in 0.05% Tween 80-containing physiological saline, and adjusted to a fungus concentration of 2×10^6 cells/mL using a counting chamber. […] The physiological saline was removed, and the mixture was further washed once with physiological saline (3 mL). The physiological saline was removed, and a test compound solution (10 μL) and Sabouraud Dextrose Broth (Difco) (500 μL) were added to keratin, and the mixture was sufficiently stirred. Then, inoculum (500 μL) of T. mentagrophytes KD-04 was added, and the mixture was cultured at 30° C. for 7 days. As a comparison control, an experiment similar to the above was performed under conditions free of keratin addition.

[7] = T. mentagrophytes KD-04, free of keratin addition, read-out: MIC SDB alone
[8] = T. mentagrophytes KD-04, keratin 50 mg added, read-out: MIC SDB + keratin

| MIC [1] [µg/mL] | MIC [2] [µg/mL] | MIC [3] [µg/mL] | MIC [4] [µg/mL] | MIC [5] [µg/mL] | MIC [6, 7] [µg/mL] | MIC [6, 8] [µg/mL] | MIC increase by the addition of keratin to medium [6] [fold] | Compound |
| --- | --- | --- | --- | --- | --- | --- | --- | --- |
| 0.1 (≈ 0.315 µM) | 0.05 (≈ 0.157 µM) | 0.025 (≈ 0.0787 µM) | 0.025 (≈ 0.0787 µM) | 0.05 (≈ 0.157 µM) | 0.05 (≈ 0.157 µM) | 0.39 | – | CCC(C)(C)c1ccc(CC(C)CN2C[C@@H](C)O[C@@H](C)C2)cc1 (stereo partly drawn) [AMF, amorolfine, reference compound] |
| 0.39 (≈ 1.61 µM) | 0.78 (≈ 3.22 µM) | 0.78 (≈ 3.22 µM) | 0.78 (≈ 3.22 µM) | > 25 | 0.39 (≈ 1.61 µM) | 0.78 | – | CCc1ccccc1C(=NN(C)C)n1ccnc1 [Compound No. 4, N′-[1-(2-ethylphenyl)-1-imidazol-1-ylmethylidene]-N,N-dimethylhydrazine] |
| 0.2 (≈ 0.774 µM) | 0.39 (≈ 1.51 µM) | 0.2 (≈ 0.774 µM) | 0.2 (≈ 0.774 µM) | 12.5 (≈ 48.4 µM) | 0.39 (≈ 1.51 µM) | 0.39 | – | CCOc1ccccc1C(=NN(C)C)n1ccnc1 [Compound No. 16, N′-[1-(2-ethoxyphenyl)-1-imidazol-1-ylmethylidene]-N,N-dimethylhydrazine] |
| 0.2 (≈ 0.734 µM) | 0.39 (≈ 1.43 µM) | 0.2 (≈ 0.734 µM) | 0.2 (≈ 0.734 µM) | 3.13 (≈ 11.5 µM) | 0.05 (≈ 0.184 µM) | 0.1 | – | CCCOc1ccccc1C(=NN(C)C)n1ccnc1 [Compound No. 17, N′-[1-imidazol-1-yl-1-(2-propoxyphenyl)methylidene]-N,N-dimethylhydrazine] |
| 0.2 (≈ 0.74 µM) | 0.39 (≈ 1.44 µM) | 0.1 (≈ 0.37 µM) | 0.1 (≈ 0.37 µM) | 12.5 (≈ 46.2 µM) | 0.1 (≈ 0.37 µM) | 0.2 | – | C=CCOc1ccccc1C(=NN(C)C)n1ccnc1 [Compound No. 20, N′-[1-(2-allyloxyphenyl)-1-imidazol-1-ylmethylidene]-N,N-dimethylhydrazine] |
| 0.2 (≈ 0.74 µM) | 0.39 (≈ 1.44 µM) | 0.2 (≈ 0.74 µM) | 0.2 (≈ 0.74 µM) | 6.25 (≈ 23.1 µM) | 0.2 (≈ 0.74 µM) | 0.2 | – | C/C=C\Oc1ccccc1C(=NN(C)C)n1ccnc1 [Compound No. 21, N′-[1-imidazol-1-yl-1-(2-(Z)-propenyloxyphenyl)methylidene]-N,N-dimethylhydrazine] |
| 0.2 (≈ 0.671 µM) | 0.78 (≈ 2.62 µM) | 0.39 (≈ 1.31 µM) | 0.39 (≈ 1.31 µM) | 6.25 (≈ 21 µM) | 0.1 (≈ 0.335 µM) | 0.2 | – | CN(C)N=C(c1ccccc1OC(F)(F)F)n1ccnc1 [Compound No. 32, N′-[1-imidazol-1-yl-1-(2-trifluoromethoxyphenyl)methylidene]-N,N-dimethylhydrazine] |
| 0.78 (≈ 2.36 µM) | 1.56 (≈ 4.72 µM) | 0.78 (≈ 2.36 µM) | 0.39 (≈ 1.18 µM) | 6.25 (≈ 18.9 µM) | 0.39 (≈ 1.18 µM) | 0.39 | – | CN(C)N=C(c1ccccc1OC(F)(F)C(F)F)n1ccnc1 [Compound No. 33, N′-[1-imidazol-1-yl-1-[2-(1,1,2,2-tetrafluoroethoxy)phenyl]methylidene]-N,N-dimethylhydrazine] |
| 0.2 (≈ 0.53 µM) | 0.39 (≈ 1.03 µM) | 0.2 (≈ 0.53 µM) | 0.1 (≈ 0.265 µM) | 0.2 (≈ 0.53 µM) | 0.1 (≈ 0.265 µM) | 0.2 | – | CN(C)N=C(c1ccccc1OCCc1ccc(N(C)C)cc1)n1ccnc1 [Compound No. 60, N′-[1-imidazol-1-yl-1-[2-(4-dimethylaminophenethyloxy)phenyl]methylidene]-N,N-dimethylhydrazine] |
| 0.2 (≈ 0.526 µM) | 0.39 (≈ 1.03 µM) | 0.05 (≈ 0.131 µM) | 0.05 (≈ 0.131 µM) | 1.56 (≈ 4.1 µM) | 0.2 (≈ 0.526 µM) | 0.39 | – | COc1ccc(OCCOc2ccccc2C(=NN(C)C)n2ccnc2)cc1 [Compound No. 69, N′-[1-imidazol-1-yl-1-[2-[2-(4-methoxyphenoxy)ethoxy]phenyl]methylidene]-N,N-dimethylhydrazine] |
| 0.2 (≈ 0.729 µM) | 0.78 (≈ 2.84 µM) | 0.39 (≈ 1.42 µM) | 0.39 (≈ 1.42 µM) | 12.5 (≈ 45.6 µM) | 0.78 (≈ 2.84 µM) | 0.78 | – | CCSc1ccccc1C(=NN(C)C)n1ccnc1 [Compound No. 80, N′-[1-(2-ethylthiophenyl)-1-imidazol-1-ylmethylidene]-N,N-dimethylhydrazine] |
| 0.2 (≈ 0.579 µM) | 0.39 (≈ 1.13 µM) | 0.39 (≈ 1.13 µM) | 0.2 (≈ 0.579 µM) | > 10 | – | – | – | CN(N=C(c1ccccc1Cl)n1ccnc1)c1ccc(Cl)cc1 [Compound No. 141, N-(4-chlorophenyl)-N′-[1-(2-chlorophenyl)-1-imidazol-1-ylmethylidene]-N-methylhydrazine] |
| 0.2 (≈ 0.549 µM) | 0.2 (≈ 0.549 µM) | 0.2 (≈ 0.549 µM) | 0.1 (≈ 0.274 µM) | 1.56 (≈ 4.28 µM) | – | – | – | Fc1ccc(COc2ccccc2C(=NN2CCCC2)n2ccnc2)cc1 [Compound No. 158, [1-[2-(4-fluorobenzyloxy)phenyl]-1-imidazol-1-ylmethylidene]pyrrolidin-1-ylamine] |
| 0.2 (≈ 0.587 µM) | 0.2 (≈ 0.587 µM) | 0.1 (≈ 0.294 µM) | 0.1 (≈ 0.294 µM) | 0.39 (≈ 1.15 µM) | – | – | – | CCCCCOc1ccccc1C(=NN1CCCCC1)n1ccnc1 [Compound No. 173, [1-imidazol-1-yl-1-(2-pentyloxyphenyl)methylidene]piperidin-1-ylamine] |
| 0.05 (≈ 0.169 µM) | 0.1 (≈ 0.337 µM) | 0.05 (≈ 0.169 µM) | 0.05 (≈ 0.169 µM) | 1.56 (≈ 5.26 µM) | – | – | – | CCc1ccccc1C(=NN1CCCCCC1)n1ccnc1 [Compound No. 184, [1-(2-ethylphenyl)-1-imidazol-1-ylmethylidene]homopiperidin-1-ylamine] |
| 0.1 (≈ 0.306 µM) | 0.2 (≈ 0.613 µM) | 0.2 (≈ 0.613 µM) | 0.1 (≈ 0.306 µM) | 0.78 (≈ 2.39 µM) | – | – | – | CC(C)Oc1ccccc1C(=NN1CCCCCC1)n1ccnc1 [Compound No. 198, homopiperidin-1-yl-[1-imidazol-1-yl-1-(2-isopropoxyphenyl)methylidene]amine] |
| 0.1 (≈ 0.308 µM) | 0.1 (≈ 0.308 µM) | 0.1 (≈ 0.308 µM) | 0.1 (≈ 0.308 µM) | 0.2 (≈ 0.616 µM) | – | – | – | C=CCOc1ccccc1C(=NN1CCCCCC1)n1ccnc1 [Compound No. 200, homopiperidin-1-yl-[1-imidazol-1-yl-1-[2-(2-propenyloxy)phenyl]methylidene]amine] |
| 0.2 (≈ 0.52 µM) | 0.39 (≈ 1.01 µM) | 0.2 (≈ 0.52 µM) | 0.1 (≈ 0.26 µM) | 1.56 (≈ 4.06 µM) | – | – | – | CCCCCOc1ccc(OC)cc1C(=NN1CCCCCC1)n1ccnc1 [Compound No. 211, homopiperidin-1-yl-[1-imidazol-1-yl-1-(5-methoxy-2-pentyloxyphenyl)methylidene]amine] |
| 0.39 (≈ 1.08 µM) | 0.78 (≈ 2.16 µM) | 0.78 (≈ 2.16 µM) | 0.39 (≈ 1.08 µM) | 25 (≈ 69.4 µM) | – | – | – | c1ccc(Oc2ccccc2C(=NN2CCCCCC2)n2ccnc2)cc1 [Compound No. 212, homopiperidin-1-yl-[1-imidazol-1-yl-1-(2-phenoxyphenyl)methylidene]amine] |
| – | – | – | – | – | – | – | 8 | CCC(C)(C)c1ccc(CC(C)CN2C[C@@H](C)O[C@@H](C)C2)cc1 (stereo partly drawn) [amorolfine, reference compound] |
| – | – | – | – | – | – | – | 512 | CCC(C)n1ncn(-c2ccc(N3CCN(c4ccc(OCC5COC(Cn6cncn6)(c6ccc(Cl)cc6Cl)O5)cc4)CC3)cc2)c1=O (stereo not drawn) [itraconazole, reference compound] |

| Compound | MIC [1] [µg/mL] | MIC [2] [µg/mL] | MIC [3] [µg/mL] | MIC [4] [µg/mL] | MIC [5] [µg/mL] | MIC [6, 7] [µg/mL] | MIC [6, 8] [µg/mL] | MIC increase by the addition of keratin to medium [6] [fold] |
| --- | --- | --- | --- | --- | --- | --- | --- | --- |
| CCCCOc1ccccc1C(=NN(C)C)n1ccnc1 [Compound No. 23, N′-[1-(2-butoxyphenyl)-1-imidazol-1-ylmethylidene]-N,N-dimethylhydrazine] | 0.1 (≈ 0.349 µM) | 0.2 (≈ 0.698 µM) | 0.1 (≈ 0.349 µM) | 0.1 (≈ 0.349 µM) | 0.39 (≈ 1.36 µM) | 0.1 (≈ 0.349 µM) | 0.2 | – |
